{
  "source": "patent US8192962B2",
  "about": "“Processes for detecting toxic substances” (Daikin Industries, Ltd., priority 2001, dated 2012)",
  "key": {"[1]": {"system": "DNA repair protein genes", "assay": "DNA chip mRNA expression in yeast, DNA repair protein genes (Table 3)", "type": "cell-based, Saccharomyces cerevisiae S288C", "details": "incubated two hours, concentrations as in the 1st table", "summary_of_the_method": "(§1)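 Values are treated/untreated fluorescence ratios from a whole-genome yeast DNA chip hybridized over 12 hours at 65° C with Cy3- or Cy5-labelled cDNA from poly(A) mRNA. Log-phase S288C yeast in YPD at 25° C had received a single toxic chemical for two hours, dosed to slow growth without killing.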"}, "[2]": {"system": "Detoxification protein genes", "assay": "DNA chip mRNA expression in yeast, detoxification protein genes (Table 8)", "type": "cell-based, Saccharomyces cerevisiae S288C", "summary_of_the_method": "as §1"}},
  "data": [
    {"smiles": "Cl[C@H]1[C@H](Cl)[C@@H](Cl)[C@@H](Cl)[C@H](Cl)[C@H]1Cl", "note": "[(7), γ-hexachlorocyclohexane]", "values": [
      {"measurement": "The level of expressed mRNA in the presence of chemical substance/The level of expressed mRNA in the absence of chemical substance", "setting": "[1]; yeast gene YAL015C", "result": 1.2},
      {"measurement": "The level of expressed mRNA in the presence of chemical substance/The level of expressed mRNA in the absence of chemical substance", "setting": "[1]; yeast gene YAR007C", "result": 0.8},
      {"measurement": "The level of expressed mRNA in the presence of chemical substance/The level of expressed mRNA in the absence of chemical substance", "setting": "[1]; yeast gene YBL019W", "result": 1.2},
      {"measurement": "The level of expressed mRNA in the presence of chemical substance/The level of expressed mRNA in the absence of chemical substance", "setting": "[1]; yeast gene YBR073W", "result": 0.6},
      {"measurement": "The level of expressed mRNA in the presence of chemical substance/The level of expressed mRNA in the absence of chemical substance", "setting": "[1]; yeast gene YBR272C", "result": 1.9},
      {"measurement": "The level of expressed mRNA in the presence of chemical substance/The level of expressed mRNA in the absence of chemical substance", "setting": "[1]; yeast gene YCR014C", "result": 1.1},
      {"measurement": "The level of expressed mRNA in the presence of chemical substance/The level of expressed mRNA in the absence of chemical substance", "setting": "[1]; yeast gene YDL017W", "result": 1.1},
      {"measurement": "The level of expressed mRNA in the presence of chemical substance/The level of expressed mRNA in the absence of chemical substance", "setting": "[1]; yeast gene YDL059C", "result": 1.1},
      {"measurement": "The level of expressed mRNA in the presence of chemical substance/The level of expressed mRNA in the absence of chemical substance", "setting": "[1]; yeast gene YDL200C", "result": 1.7},
      {"measurement": "The level of expressed mRNA in the presence of chemical substance/The level of expressed mRNA in the absence of chemical substance", "setting": "[1]; yeast gene YDR054C", "result": 1.1},
      {"measurement": "The level of expressed mRNA in the presence of chemical substance/The level of expressed mRNA in the absence of chemical substance", "setting": "[1]; yeast gene YDR369C", "result": 0.4},
      {"measurement": "The level of expressed mRNA in the presence of chemical substance/The level of expressed mRNA in the absence of chemical substance", "setting": "[1]; yeast gene YEL019C", "result": 1.2},
      {"measurement": "The level of expressed mRNA in the presence of chemical substance/The level of expressed mRNA in the absence of chemical substance", "setting": "[1]; yeast gene YEL037C", "result": 0.8},
      {"measurement": "The level of expressed mRNA in the presence of chemical substance/The level of expressed mRNA in the absence of chemical substance", "setting": "[1]; yeast gene YER162C", "result": 0.5},
      {"measurement": "The level of expressed mRNA in the presence of chemical substance/The level of expressed mRNA in the absence of chemical substance", "setting": "[1]; yeast gene YFL014W", "result": 5.5},
      {"measurement": "The level of expressed mRNA in the presence of chemical substance/The level of expressed mRNA in the absence of chemical substance", "setting": "[1]; yeast gene YGL058W", "result": 0.0},
      {"measurement": "The level of expressed mRNA in the presence of chemical substance/The level of expressed mRNA in the absence of chemical substance", "setting": "[1]; yeast gene YGL091C", "result": 1.3},
      {"measurement": "The level of expressed mRNA in the presence of chemical substance/The level of expressed mRNA in the absence of chemical substance", "setting": "[1]; yeast gene YGL127C", "result": 1.0},
      {"measurement": "The level of expressed mRNA in the presence of chemical substance/The level of expressed mRNA in the absence of chemical substance", "setting": "[1]; yeast gene YGL163C", "result": 1.0},
      {"measurement": "The level of expressed mRNA in the presence of chemical substance/The level of expressed mRNA in the absence of chemical substance", "setting": "[1]; yeast gene YGL249W", "result": 1.2},
      {"measurement": "The level of expressed mRNA in the presence of chemical substance/The level of expressed mRNA in the absence of chemical substance", "setting": "[1]; yeast gene YGR180C", "result": 0.5},
      {"measurement": "The level of expressed mRNA in the presence of chemical substance/The level of expressed mRNA in the absence of chemical substance", "setting": "[1]; yeast gene YGR231C", "result": 2.1},
      {"measurement": "The level of expressed mRNA in the presence of chemical substance/The level of expressed mRNA in the absence of chemical substance", "setting": "[1]; yeast gene YGR258C", "result": 1.5},
      {"measurement": "The level of expressed mRNA in the presence of chemical substance/The level of expressed mRNA in the absence of chemical substance", "setting": "[1]; yeast gene YHR164C", "result": 0.8},
      {"measurement": "The level of expressed mRNA in the presence of chemical substance/The level of expressed mRNA in the absence of chemical substance", "setting": "[1]; yeast gene YIL036W", "result": 1.4},
      {"measurement": "The level of expressed mRNA in the presence of chemical substance/The level of expressed mRNA in the absence of chemical substance", "setting": "[1]; yeast gene YIL072W", "result": 1.7},
      {"measurement": "The level of expressed mRNA in the presence of chemical substance/The level of expressed mRNA in the absence of chemical substance", "setting": "[1]; yeast gene YIL143C", "result": 0.8},
      {"measurement": "The level of expressed mRNA in the presence of chemical substance/The level of expressed mRNA in the absence of chemical substance", "setting": "[1]; yeast gene YIL153W", "result": 1.6},
      {"measurement": "The level of expressed mRNA in the presence of chemical substance/The level of expressed mRNA in the absence of chemical substance", "setting": "[1]; yeast gene YIR002C", "result": 1.3},
      {"measurement": "The level of expressed mRNA in the presence of chemical substance/The level of expressed mRNA in the absence of chemical substance", "setting": "[1]; yeast gene YJL026W", "result": 0.5},
      {"measurement": "The level of expressed mRNA in the presence of chemical substance/The level of expressed mRNA in the absence of chemical substance", "setting": "[1]; yeast gene YJR046W", "result": 0.9},
      {"measurement": "The level of expressed mRNA in the presence of chemical substance/The level of expressed mRNA in the absence of chemical substance", "setting": "[1]; yeast gene YJR052W", "result": 1.2},
      {"measurement": "The level of expressed mRNA in the presence of chemical substance/The level of expressed mRNA in the absence of chemical substance", "setting": "[1]; yeast gene YKL145W", "result": 1.6},
      {"measurement": "The level of expressed mRNA in the presence of chemical substance/The level of expressed mRNA in the absence of chemical substance", "setting": "[1]; yeast gene YLR103C", "result": 1.3},
      {"measurement": "The level of expressed mRNA in the presence of chemical substance/The level of expressed mRNA in the absence of chemical substance", "setting": "[1]; yeast gene YLR233C", "result": 0.8},
      {"measurement": "The level of expressed mRNA in the presence of chemical substance/The level of expressed mRNA in the absence of chemical substance", "setting": "[1]; yeast gene YLR288C", "result": 1.3},
      {"measurement": "The level of expressed mRNA in the presence of chemical substance/The level of expressed mRNA in the absence of chemical substance", "setting": "[1]; yeast gene YML032C", "result": 0.8},
      {"measurement": "The level of expressed mRNA in the presence of chemical substance/The level of expressed mRNA in the absence of chemical substance", "setting": "[1]; yeast gene YML058W", "result": 0.6},
      {"measurement": "The level of expressed mRNA in the presence of chemical substance/The level of expressed mRNA in the absence of chemical substance", "setting": "[1]; yeast gene YMR035W", "result": 2.3},
      {"measurement": "The level of expressed mRNA in the presence of chemical substance/The level of expressed mRNA in the absence of chemical substance", "setting": "[1]; yeast gene YMR072W", "result": 1.4},
      {"measurement": "The level of expressed mRNA in the presence of chemical substance/The level of expressed mRNA in the absence of chemical substance", "setting": "[1]; yeast gene YMR096W", "result": 1.9},
      {"measurement": "The level of expressed mRNA in the presence of chemical substance/The level of expressed mRNA in the absence of chemical substance", "setting": "[1]; yeast gene YMR284W", "result": 0.8},
      {"measurement": "The level of expressed mRNA in the presence of chemical substance/The level of expressed mRNA in the absence of chemical substance", "setting": "[1]; yeast gene YNL213C", "result": 1.4},
      {"measurement": "The level of expressed mRNA in the presence of chemical substance/The level of expressed mRNA in the absence of chemical substance", "setting": "[1]; yeast gene YNL250W", "result": 1.2},
      {"measurement": "The level of expressed mRNA in the presence of chemical substance/The level of expressed mRNA in the absence of chemical substance", "setting": "[1]; yeast gene YNL261W", "result": 1.0},
      {"measurement": "The level of expressed mRNA in the presence of chemical substance/The level of expressed mRNA in the absence of chemical substance", "setting": "[1]; yeast gene YNL312W", "result": 0.5},
      {"measurement": "The level of expressed mRNA in the presence of chemical substance/The level of expressed mRNA in the absence of chemical substance", "setting": "[1]; yeast gene YOL043C", "result": 1.0},
      {"measurement": "The level of expressed mRNA in the presence of chemical substance/The level of expressed mRNA in the absence of chemical substance", "setting": "[1]; yeast gene YOR005C", "result": 1.4},
      {"measurement": "The level of expressed mRNA in the presence of chemical substance/The level of expressed mRNA in the absence of chemical substance", "setting": "[1]; yeast gene YOR386W", "result": 1.8},
      {"measurement": "The level of expressed mRNA in the presence of chemical substance/The level of expressed mRNA in the absence of chemical substance", "setting": "[1]; yeast gene YPL022W", "result": 0.8},
      {"measurement": "The level of expressed mRNA in the presence of chemical substance/The level of expressed mRNA in the absence of chemical substance", "setting": "[1]; yeast gene YPL164C", "result": 0.9},
      {"measurement": "The level of expressed mRNA in the presence of chemical substance/The level of expressed mRNA in the absence of chemical substance", "setting": "[1]; yeast gene YPL194W", "result": 1.5},
      {"measurement": "The level of expressed mRNA in the presence of chemical substance/The level of expressed mRNA in the absence of chemical substance", "setting": "[1]; yeast gene YPR025C", "result": 1.4},
      {"measurement": "The level of expressed mRNA in the presence of chemical substance/The level of expressed mRNA in the absence of chemical substance", "setting": "[2]; yeast gene YBL064C", "result": 2.5},
      {"measurement": "The level of expressed mRNA in the presence of chemical substance/The level of expressed mRNA in the absence of chemical substance", "setting": "[2]; yeast gene YBR008C", "result": 0.9},
      {"measurement": "The level of expressed mRNA in the presence of chemical substance/The level of expressed mRNA in the absence of chemical substance", "setting": "[2]; yeast gene YBR145W", "result": 58.8}
    ]}
  ]
}
